Results reported in US5470833A, “Endothelin antagonistic peptide derivatives” (Banyu Pharmaceutical Co., Ltd., priority 1990, dated 1995).
Where two headings read alike, the source gives them in different places. Each block holds one compound with its values, some of them ahead of it. Numbered stars: 1 amine (or outer) side, 2 acyl side, 3 side chain; on linkers, the order of the positions; unused ones are H or OH. Square brackets hold non-standard residues; d marks the D form. Peptide text beside a SMILES is read from it. * marks the point of attachment. ξ: configuration not given here. dNMeW = CN[C@H](Cc1c[nH]c2ccccc12)C(=O)O; d(β3hF) = N[C@@H](CC(=O)O)Cc1ccccc1; β3hF = N[C@H](CC(=O)O)Cc1ccccc1; ξ2Thi = NC(Cc1cccs1)C(=O)O; Boc = CC(C)(C)OC(=O)*; CO = O=C([*:1])[*:2]; OBn = c1ccc(CO*)cc1; NHtBu = CC(C)(C)N*; βAla = NCCC(=O)O

Columns and labels:
[1] = test system: isolated porcine coronary artery; assay: Activities against endothelin-induced contraction of isolated porcine coronary arteries; design: species or system pig; details: for shift of the concentration-response curve of endothelin-1: added 20 minutes prior to endothelin-1
Method: The coronary artery of pig was extracted, and a spiral preparation having a width of 1 mm and a length of 10 mm was prepared therefrom.
Endothelin-1 was added into the organ bath in a cumulatively increasing manner, whereby the influence of a compound of the present invention to the concentration-response curve for endothelin-1 was examined. The compound was added into the organ bath 20 minutes prior to the addition of endothelin-1.

[2] = test system: isolated guinea pig trachea; assay: Activities against endothelin-induced contraction of isolated guinea pig trachea; details: 6 μM compound; for shift of the concentration-response curve for endothelin-1: added 20 minutes prior to endothelin-1
Method: The trachea of a guinea pig was extracted, and the trachea was cut into rings to afford a preparation.
Endothelin-1 was added into the organ bath in a cumulatively increasing manner, and the influence of a compound of the present invention to the concentration-response curve for endothelin was examined. The compound was added into the organ bath 20 minutes prior to the addition of endothelin-1.

[3] = target: T1, endothelin receptor (membrane of smooth muscle tissue of porcine aorta) (Sus scrofa, UniProt Q29010); assay: Endothelin binding inhibition test (125I-endothelin-1, porcine aorta smooth muscle membrane); details: read-out: 125I-endothelin-1 binding inhibition; for inhibition at 10 µM: 10 μM test compound (marked *)
T1 construct: from tissue; host or cells: porcine aorta smooth muscle, membrane fraction
T1 sequence (Q29010 21-427): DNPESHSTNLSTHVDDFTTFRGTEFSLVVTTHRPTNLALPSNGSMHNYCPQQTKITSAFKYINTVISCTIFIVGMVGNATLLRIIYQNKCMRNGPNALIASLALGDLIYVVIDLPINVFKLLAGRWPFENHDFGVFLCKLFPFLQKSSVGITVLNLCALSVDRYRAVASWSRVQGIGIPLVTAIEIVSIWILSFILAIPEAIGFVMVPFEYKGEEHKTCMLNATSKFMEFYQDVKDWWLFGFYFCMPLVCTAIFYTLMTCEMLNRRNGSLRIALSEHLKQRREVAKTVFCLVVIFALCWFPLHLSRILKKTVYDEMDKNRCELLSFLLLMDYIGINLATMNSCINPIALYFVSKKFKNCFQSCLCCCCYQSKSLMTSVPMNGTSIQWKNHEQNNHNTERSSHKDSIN
Method: The smooth muscle tissue of porcine aorta was homogenized in a buffer solution of 10 mM MOPS, pH 7.4, at 4° C. by a polytron. To the homogenate, sucrose was added to a concentration of 20%, and the mixture was centrifuged at 1,000×g for 15 minutes, and the supernatant was further centrifuged at 10,000×g for 15 minutes. The supernatant thereof was further centrifuged at 90,000×g for 40 minutes. The membrane precipitate thereby obtained was suspended in a buffer solution of 5 mM HEPES/Tris, pH 7.4, at a concentration of 25 mg/ml.
Then, 16 μl of this membrane suspension was added to 340 μl of 50 mM Tris/HCl buffer, pH 7.4, containing 10 μM calcium chloride, 10 μM magnesium chloride, 0.1 mM PMSF, 1 μM pepstatin A, 2 μM leupeptin, 1 mM 1,10-phenanthroline and 0.1% bovine serum albumin. To this suspension, 4 μl of (A) endothelin-1 (for nonspecific binding; 0.2 μM as the final concentration), (B) buffer solution A (for total control binding), or (C) a test compound (1.1 μM or 10 μM as the final concentration),was added. Further, to each suspension, 40 μl of ^125 I-endothelin-1 (12000-18000 cpm) was added. These mixtures were incubated at 25° C. for 4 hours, then subjected to filtration on a glass filter GF/C and then washed with 5 mM HEPES/Tris, pH 7.4, containing 0.3% bovine serum albumin. Then, the radioactivity trapped by the glass filter was measured, and the ^125 I-endothelin-1 binding inhibition D (%) at 1.1 μM or 10 μM of the test compound was determined by the following equation. [formula] Each test was performed in triplicate.
The test compounds are indicated by Compound Nos.

isolated rat heart = assay: Effects on the increased perfusion pressure induced by endothelin in isolated rat heart (Langendorff)
Method: The heart of a male Sprague Dohrie (SD) rat was extracted, and the perfusion pressure was measured and recorded according to the Langendorff's method.
Endothelin-1 was cumulatively added to the perfusate, whereby the influence of a compound of the present invention to the concentration-response curve for endothelin-1 was examined. The compound which was dissolved in the perfusate had been infused from 20 minutes prior to the addition of endothelin-1 till just after finishing measurement of the concentration-response curve for endothelin-1.

SMILES: CC(C)C[C@H](NC(=O)N1CCCCCC1)C(=O)N[C@H](Cc1c[nH]c2ccccc12)C(=O)N[C@H](Cc1c[nH]c2ccccc12)C(=O)O [Compound 50]
maximum response to endothelin-1 ([1]; 2 μM compound): did not affect the maximum response
shift of the concentration-response curve of endothelin-1 ([1]; 2 μM compound): remarkably shifted the concentration-response curves of endothelin-1 to the right
maximum response to endothelin-1 [2]: did not affect the maximum response
shift of the concentration-response curve for endothelin-1 [2]: remarkably shifted the concentration-response curves for endothelin-1 to the right
inhibition at 1.1 µM [3]: 87%
maximum response to endothelin-1 (perfusion pressure) (isolated rat heart; 1 μM compound): did not affect the maximum response
shift of the concentration-response curve for endothelin-1 (perfusion pressure) (isolated rat heart; 1 μM compound in perfusate from 20 minutes prior to endothelin-1): moved the concentration-response curve for endothelin-1to the right

SMILES: CC(C)C[C@H](NC(=O)OC(C)(C)C)C(=O)N[C@H](Cc1c[nH]c2ccccc12)C(=O)N[C@H](CC(N)=O)C(=O)O [Compound 9] (Boc-Leu-[dW]-[dN]-OH)
inhibition at 10 µM [3]: 55%

SMILES: CC(C)C[C@H](NC(=O)OC(C)(C)C)C(=O)N(C)[C@H](Cc1c[nH]c2ccccc12)C(=O)NCCC(=O)O [Compound 32] (Boc-Leu-[dNMeW]-[βAla]-OH)
inhibition at 10 µM [3]: 32%

SMILES: CC(C)C[C@H](NC(=O)N(C)C)C(=O)N[C@H](Cc1c[nH]c2ccccc12)C(=O)NCCC(=O)O [Compound 73] ({NMe2-CO}-Leu-[dW]-[βAla]-OH)
inhibition at 10 µM [3]: 61%

SMILES: CCOC(=O)CCNC(=O)[C@@H](Cc1c[nH]c2ccccc12)NC(=O)[C@H](CC(C)C)NC(=O)N1CCCCCC1 [Compound 92]
inhibition at 1.1 µM ([3]; 1.1 μM test compound (no mark)): 40%

SMILES: CC(C)C[C@H](NC(=O)OC(C)(C)C)C(=O)N[C@H](Cc1c[nH]c2ccccc12)C(=O)NCCC(=O)O [Compound 29] (Boc-Leu-[dW]-[βAla]-OH)
inhibition at 1.1 µM ([3]; 1.1 μM test compound (no mark)): 69%

SMILES: CC(C)C[C@H](NC(=O)OC(C)(C)C)C(=O)N[C@H](Cc1c[nH]c2ccccc12)C(=O)N[C@@H](CC(=O)OCc1ccccc1)C(N)=O [Compound 37] (Boc-Leu-[dW]-Asp(OBn)-NH2)
inhibition at 10 µM [3]: 29%

SMILES: CC(C)C[C@H](NC(=O)OC(C)(C)C)C(=O)N[C@H](Cc1c[nH]c2ccccc12)C(=O)NC(Cc1cccs1)C(=O)O (stereo partly drawn) [Compound 15] (Boc-Leu-[dW]-[ξ2Thi]-OH)
inhibition at 1.1 µM ([3]; 1.1 μM test compound (no mark)): 71%

SMILES: CC(C)C[C@H](NC(=O)OC(C)(C)C)C(=O)N[C@H](Cc1c[nH]c2ccccc12)C(=O)N[C@@H](CC(=O)O)Cc1ccccc1 [Compound 20] (Boc-Leu-[dW]-[d(β3hF)]-OH)
inhibition at 1.1 µM ([3]; 1.1 μM test compound (no mark)): 44%

SMILES: CC(C)C[C@H](NC(=O)OC(C)(C)C)C(=O)N[C@H](Cc1c[nH]c2ccccc12)C(=O)N[C@H](CC(=O)O)Cc1ccccc1 [Compound 21] (Boc-Leu-[dW]-[β3hF]-OH)
inhibition at 1.1 µM ([3]; 1.1 μM test compound (no mark)): 39%

SMILES: Cc1nc[nH]c1CSC[C@@H](NC(=O)[C@@H](Cc1c[nH]c2ccccc12)NC(=O)[C@H](CC(C)C)NC(=O)OC(C)(C)C)C(=O)O [Compound 22]
inhibition at 10 µM [3]: 36%

SMILES: CC(C)C[C@H](NC(=O)N1CCCCCC1)C(=O)N[C@H](Cc1c[nH]c2ccccc12)C(=O)NCCS(=O)(=O)O [Compound 53]
inhibition at 1.1 µM ([3]; 1.1 μM test compound (no mark)): 86%

SMILES: CC(C)C[C@H](NC(=O)NC(C)(C)C)C(=O)N[C@H](Cc1c[nH]c2ccccc12)C(=O)N[C@H](Cc1c[nH]cn1)C(=O)O [Compound 82] ({NHtBu-CO}-Leu-[dW]-[dH]-OH)
inhibition at 1.1 µM ([3]; 1.1 μM test compound (no mark)): 76%

Second part, led by results:

inhibition at 1.1 µM ([3]; 1.1 μM test compound (no mark)): 84%
SMILES: CC(C)C[C@H](NC(=O)N1CCCCCC1)C(=O)N[C@H](Cc1cn(C=O)c2ccccc12)C(=O)NCCS(=O)(=O)O [Compound 161]

inhibition at 1.1 µM ([3]; 1.1 μM test compound (no mark)): 57%
SMILES: CC(C)C[C@H](NC(=O)N1CCCCCC1)C(=O)N[C@H](Cc1c[nH]c2ccccc12)C(=O)NCCC(=O)NS(C)(=O)=O [Compound 158]

inhibition at 1.1 µM ([3]; 1.1 μM test compound (no mark)): 87%
SMILES: CC(C)C[C@H](NC(=O)N(CC(C)C)C1CCCC1)C(=O)N[C@H](Cc1c[nH]c2ccccc12)C(=O)N[C@H](Cc1c[nH]c2ccccc12)C(=O)O [Compound 172]

inhibition at 1.1 µM ([3]; 1.1 μM test compound (no mark)): 69%
SMILES: CC(C)C[C@H](NC(=O)NC12CC3CC(CC(C3)C1)C2)C(=O)N[C@H](Cc1c[nH]c2ccccc12)C(=O)NCCC(=O)O [Compound 113]

inhibition at 1.1 µM ([3]; 1.1 μM test compound (no mark)): 78%
SMILES: CC(C)C[C@H](NC(=O)N1CCCCCC1)C(=O)N[C@H](Cc1c[nH]c2ccccc12)C(=O)NCCC(=O)O [Compound 93]
maximum response to endothelin-1 ([1]; 6 μM compound): did not affect the maximum response
shift of the concentration-response curve of endothelin-1 ([1]; 6 μM compound): remarkably shifted the concentration-response curves of endothelin-1 to the right
maximum response to endothelin-1 [2]: did not affect the maximum response
shift of the concentration-response curve for endothelin-1 [2]: remarkably shifted the concentration-response curves for endothelin-1 to the right

inhibition at 1.1 µM ([3]; 1.1 μM test compound (no mark)): 81%
SMILES: CC(C)C[C@H](NC(=O)N(C(C)C)C(C)C)C(=O)N[C@H](Cc1c[nH]c2ccccc12)C(=O)NCCC(=O)O [Compound 119]
